Results on five compounds are retold here after patent US20020156013A1, “Asthma associated factors as targets for treating atopic allergies including asthma and related disorders” (priority 1997, published 2002).

Experiment [1] concerns TS2 cells. The experiment in a line: Proliferation of TS2 cells with lovastatin (3H-thymidine incorporation). The experiment is classed as cell-based, murine. The following applies: Mus musculus, 72 h; IL-2 or IL-9 5 ng/ml, different concentrations of lovastatin, three days; maximal inhibition; read-out: inhibition of cellular proliferation of TS2 cells as compared to untreated cells. On the procedure:
To further test the role of M-Ras in IL-9 signaling, yet another IL-9 responsive cell line was treated with the farnesyl transferase inhibitor lovastatin to determine if the Ras pathway was utilized for proliferation. TS2 cells were washed three times and plated in 96-well plates at a density of 1,000 cells per well. IL-2 or IL-9 was added successively at a concentration of 5 ng/ml together with different concentrations of lovastatin as indicated. DMSO was included as the vehicle control. After three days, the rate of proliferation was determined by ^3H-thymidine incorporation ([…] per well) and percent of inhibition was obtained from the ratio between treated and untreated cells.

The subject of experiment [2] is M-Ras. The experiment in a line: M-Ras prenylation in transfected BW5147 cells (immunoprecipitation, SDS-PAGE migration). The following applies: BW5147 cells with pEF-BOS-M-Ras, 4 mg/ml lovastatin, three days, versus untreated. The experiment is classed as cell-based, murine. On the procedure: BW5147, a murine thyoma cell line that grows in the absence of any cytokine, was stably transfected with an expression vector containing wild type M-Ras cDNA (pEF-BOS-M-Ras). After two weeks of selection in 3 μg/ml of Puromycin, cells were treated for three days with different compounds previously reported to work as inhibitors of p21 Ras prenylation. Cells were then harvested and proteins were extracted and immunoprecipitated with a rabbit antibody (JAL4) specific for M-Ras. Immunoprecipitates were electrophoretically resolved by SDS-PAGE (18%) and transferred to PVDF membrane. Immunoblots were successively probed with JAL4 antibody (1:1500 dilution) to detect the expression and migratory pattern of M-Ras protein. The non-prenylated form of p21 Ras migrates slower than the fully processed form. […] In contrast, cells transfected with pEF-BOS-M-Ras overexpressed the M-Ras protein.

For experiment [3], the system named is M-Ras. As to the kind of experiment: M-Ras induction in mitogen stimulated splenocytes (RT-PCR). The conditions noted are these: DBA2 splenocytes, 5 ug/ml concanavalin A, 10 μg/ml aminosterol, 24 hours. It is filed as cell-based, DBA2 mouse. The method, then:
Splenocytes from the DBA2 bronchial hyperresponsive mouse were treated with aminosterol compounds to test for their ability to block the induction of M-Ras in response to mitogens. This group of aminosterols was identified from the liver of the dogfish shark and as a class appear to be antiproliferative. This series of aminosterols was assayed for their ability to inhibit M-Ras expression and TH2 activity in mitogen stimulated splenocytes from the DBA2 mouse.
Splenocytes were isolated from naive DBA2 mice by aseptic removal of spleens from anesthetized mice. Spleens were then minced by sterilized scissors and tissue was passed through a sterilized #60 wire mesh sieve. Cells were resuspended in RPMI medium and washed twice in the same medium. Cells were then resuspended in lysis buffer (4.15 g NaCl, 0.5 g KHCO3, 0.019 g EDTA in 500 ml of dH2O) to lyse red blood cells. Cells were incubated at 37° C. for 5 minutes and resuspended in RPMI plus heat inactivated 10% fetal bovine serum. Cells were then spun down and resuspended in RPMI growth media (as above) plus 5 ug/ml of concanavalin A. Cell cultures were treated with 10 μg/ml of the aminosterol compounds for 24 hours and were then harvested for RNA isolation using the Trizol method described by the manufacturer (Gibco-BRL). […]

Experiment [4] has as its system TS1-RA3 cells. The experiment in a line: IL-9 induced proliferation of TS1-RA3 cells (acid phosphatase assay). The experiment is classed as cell-based, murine. The following applies: grown in IL-9, varying amounts of manumycin A, 4 days; maximal inhibition. The method, then:
Ras molecules have been previously shown to function after prenlylation via farnesyl transferase and subsequent attachment to the inner cytoplasmic membrane. To test the role of M-Ras in IL-9 signaling, IL-9 responsive cells were treated with the farnesyl transferase inhibitor manumycin A in a proliferation assay to determine if the Ras pathway was utilized for proliferation. TS1-RA3 cells, which are a murine TH2 lymphocyte cell line expressing human IL-9 receptor by a transfected expression construct, were grown in the presence of IL-9 and in the absence or in varying amounts of manumycin A for 4 days.

Experiment [5] concerns Elk (a target of the MAPK pathway). The experiment in a line: PathDetect signal transduction pathway reporting system (GAL4-Elk luciferase reporter) with activated M-Ras mutants. The following applies: HEK293 cells, GAL4-Elk fusion. It is filed as cell-based. From the text:
In order to characterize the pathway stimulated by activated M-Ras, applicants tested the ability of activated mutants to up-regulate the mitogen-activated protein kinase (MAPK) pathway or the c-Jun N-terminal kinase (JNK) pathway using an in vitro signal transduction pathway reporting system (FIG. 11). This luciferase-based assay allows for indirect measurement of Elk (target of the MAPK pathway) or Jun (target of the JNK pathway) protein activation. Activated MEK1, which activates Elk, served as a positive control for the MAPK pathway whereas activated MEKK was used as a positive control for the JNK pathway because it activates Jun.
The results of this experiment are shown in FIG. 12 for the MAPK pathway. […] In addition, M-Ras-1, M-Ras-2 and M-Ras-3 mutants activated Elk, indicating M-Ras induced activation of the MAPK pathway.
To characterize the activation pathway triggered by activated M-Ras, the ability of the M-Ras mutants described in Example 8 to activate the mitogen-activated protein kinase (MAPK) pathway or the c-JUN N-terminal Kinase (JNK) pathway was tested using the PathDetect in vivo signal transduction pathway reporting system (Stratagene). […] As expected, significant luciferase activity was detected when cells expressed the GAL4-Elk fusion protein together with activated MEK-1. […]
On the technique in general: In a reporter assay the amount or activity of a reporter protein is the signal.

Experiment [6] relates to TS2 cells. The experiment in a line: Cytokine-induced proliferation of TS2 cells (tritiated thymidine). It is filed as cell-based, murine. The method, then:
TS2 cells were grown in DMEM medium supplemented with 10% fetal calf serum, 50 μM 2-mercaptoethanol, 0.55 mM L-arginine, 0.24 mM L-asparagine and 1.25 mM L-glutamine.
The murine T-cell line TS2 grows in response to IL-2 and IL-9 in vitro. […] Cells which were maintained in medium described in Example 1 plus IL-2, were washed once with phosphate-buffered saline and plated at 3000 cells per well in the presence of 200 U/ml IL-2 or 200 U/ml of IL-9. Cells were grown for three days in the presence of […] (10 μM) and then pulsed for four hours with tritiated thymidine. The cells were then harvested onto glass fiber filters and analyzed by scintillation counting.
The data is shown as percent growth as compared to cytokine only.

Experiment [7] relates to BaF3 cells. As to the kind of experiment: Proliferation of BaF3 cells transfected with wild-type or constitutively active mutant M-Ras. The experiment is classed as cell-based, murine. The method, then:
To assess the ability of M-Ras to be able to exert a constitutive activity on cellular proliferation and to abrogate the requirement of cytokines in a cytokine-dependent cell line, site directed mutagenesis was used to generate mutant M-Ras proteins to assess their activities. Alignment of M-Ras to the H- and K-Ras proteins permitted identification of potential residues that may result in constitutive activation of M-Ras. Two mutants were prepared at codon 22, substituting a Val or Lys for Gly while another mutant was prepared at codon 71 substituting a Lys for Glu. These substitutions had been previously shown to result in active Ras molecules (FIG. 8). […] Mutant Ras cDNA was then cloned into the NotI-XbaI cloning site of the mammalian expression vector pEF-BOS which contains a puromycin resistance gene for selection of transfected cells. These expression vectors were then transfected into the IL-3 dependent cell line BaF3 and it was assayed for cytokine-independent growth. BaF3 cells were transfected with the three mutant M-Ras vectors, the wild type M-Ras vector or an empty vector by electroporation using the Gene Pulsar II (Bio-Rad). The settings used were […], 74 ohms and 300 volts with 50 μg of sterile DNA. Pooled transfected cells were selected with puromycin (3 μg/ml) and M-Ras expression was determined by Northern blot. All constructs expressed equivalent amounts of exogenous M-Ras.
The murine T-cell line TS2 grows in response to IL-2 and IL-9 in vitro. […] In addition, the MAPK inhibitor PD98059 has the ability to block M-Ras signaling as described in Example 10. […] Cells which were maintained in medium described in Example 1 plus IL-2, were washed once with phosphate-buffered saline and plated at 3000 cells per well in the presence of 200 U/ml IL-2 or 200 U/ml of IL-9. […] The cells were then harvested onto glass fiber filters and analyzed by scintillation counting.
Cells were plated at 3000 cells/well in the presence or absence of IL-3 and 10 μm PD98059 and assessed for proliferation as described in Example 12. […]

The target in experiment [8] is p38 MAPK (Homo sapiens, UniProt Q16539). The conditions noted are these: Lee et al., 1994; Gallagher et al., 1997; cited from earlier work.
Experiment [9] has as its system ERK1, 2 or 5 family or JNK family of MAPK. The conditions noted are these: Lee et al., 1994; Gallagher et al., 1997; cited from earlier work.

Chain of p38 MAPK (Q16539 whole entry): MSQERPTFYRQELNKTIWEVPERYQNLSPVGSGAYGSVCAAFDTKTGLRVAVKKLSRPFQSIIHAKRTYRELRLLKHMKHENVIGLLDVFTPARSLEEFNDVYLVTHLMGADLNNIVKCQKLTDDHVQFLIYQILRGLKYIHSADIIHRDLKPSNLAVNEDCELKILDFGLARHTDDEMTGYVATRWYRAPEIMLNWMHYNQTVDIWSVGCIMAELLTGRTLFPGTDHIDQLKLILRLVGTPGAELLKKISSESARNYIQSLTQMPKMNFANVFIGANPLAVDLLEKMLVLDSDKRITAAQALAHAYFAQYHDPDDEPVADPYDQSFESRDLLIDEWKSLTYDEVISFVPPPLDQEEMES

As to `CC[C@H](C)C(=O)O[C@H]1C[C@@H](C)C=C2C=C[C@H](C)[C@H](CC[C@@H]3C[C@@H](O)CC(=O)O3)[C@H]21` [lovastatin], the inhibition at 0.005 µg/mL in experiment [1] is at most 95%. The “migration of M-Ras protein on SDS-PAGE (non-prenylated form migrates slower)” value in experiment [2] is “migrated higher”.

As to `CC(C)[C@@H](CC[C@@H](C)[C@H]1CC[C@H]2[C@@H]3[C@H](O)C[C@H]4C[C@@H](NCCCNCCCCNCCCN)CC[C@]4(C)[C@H]3CC[C@]12C)OS(=O)(=O)O` [compound 1436], the “expression of M-Ras” value in experiment [3] is recorded as “no effect”.

As to `CCCC[C@@H](C)/C=C(C)/C=C(\C)C(=O)NC1=C[C@@](O)(/C=C/C=C/C=C/C(=O)NC2=C(O)CCC2=O)[C@@H]2O[C@@H]2C1=O` [manumycin A], the “inhibition of cellular proliferation of TS1-RA3 cells as compared to untreated cells” value in experiment [4] is “up to 76%”.

With `COc1cccc(-c2cc(=O)c3ccccc3o2)c1N` [PD98059], the “luciferase induction by M-Ras-1, M-Ras-2 and M-Ras-3 mutants” value in [5] is recorded as “blocked”. Also, in [6] (200 U/ml IL-2, inhibitor 10 μM, three days), the “growth of cells grown in IL-2” value is “no inhibitory activity”. The “growth of cells grown in IL-9” value in experiment [6] (200 U/ml IL-9, inhibitor 10 μM, three days) is “growth inhibited”. In addition, the “proliferation of cells expressing the mutant M-Ras gene” value in experiment [7] (BaF3, absence of IL-3, 10 μm PD98059) is “blocked”. For the same compound, in experiment [7] (BaF3, with IL-3, 10 μm PD98059), the “IL-3 induced cellular proliferation of M-Ras wild-type transfected cells” value was “no activity” and the “proliferation of mutant M-Ras cells grown with IL-3 (cellular toxicity check)” value is recorded as “could proliferate”.

Take `Oc1ccc(-c2nc(-c3ccncc3)c(-c3ccc(F)cc3)[nH]2)cc1` [SB202190]: the “ability of TS2 cells to proliferate in response to IL-2” value in experiment [6] (IL-2, percent growth compared to cytokine only) is “not”. Further, in experiment [6] (IL-9, percent growth compared to cytokine only), the “ability of TS2 cells to proliferate in response to IL-9” value is “blocked”. In addition, in [8], the “inhibition of p38 MAPK” value was “specifically inhibit”. The “inhibition of ERK1, 2 or 5 family or JNK family of MAPK” value in experiment [9] was “not”.
